Assay results taken from the supplement of paper PMC10307832.

Legend:
Assay in all cases: relative viability (nuclei count vs DMSO), 5 days (fraction); higher = more cells survive
MK-2206 + Crizotinib = compound: NC1(c2ccc(-c3nc4ccn5c(=O)[nH]nc5c4cc3-c3ccccc3)cc2)CCC1 [MK-2206] + C[C@@H](Oc1cc(-c2cnn(C3CCNCC3)c2)cnc1N)c1c(Cl)ccc(F)c1Cl [Crizotinib] (partner 1 µM)
Method in brief: (§1)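 The day after seeding in 1536-well plates, lung cancer cell lines were treated by pin tool with a single drug, or with a fixed anchor-drug dose together with five library-drug doses (not always all listed) in √10 steps. After 5 days, a combined fix-and-stain solution (final 0.05% Triton X-100, 1% formaldehyde, 1 ug/ml Hoechst) was added. Nuclei counted on 4× images gave relative viability as treated counts over vehicle counts, reported as the median of duplicate plates.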

MK-2206 + Pictilisib = compound: NC1(c2ccc(-c3nc4ccn5c(=O)[nH]nc5c4cc3-c3ccccc3)cc2)CCC1 [MK-2206] + CS(=O)(=O)N1CCN(Cc2cc3nc(-c4cccc5[nH]ncc45)nc(N4CCOCC4)c3s2)CC1 [Pictilisib] (partner 1 µM)
Method in brief: as §1

MK-2206 + OSI-027 = compound: NC1(c2ccc(-c3nc4ccn5c(=O)[nH]nc5c4cc3-c3ccccc3)cc2)CCC1 [MK-2206] + COc1cccc2cc(-c3nc([C@H]4CC[C@H](C(=O)O)CC4)n4ncnc(N)c34)[nH]c12 [OSI-027] (partner 0.5 µM)
Method in brief: as §1

Pictilisib + Foretinib = compound: CS(=O)(=O)N1CCN(Cc2cc3nc(-c4cccc5[nH]ncc45)nc(N4CCOCC4)c3s2)CC1 [Pictilisib] + COc1cc2c(Oc3ccc(NC(=O)C4(C(=O)Nc5ccc(F)cc5)CC4)cc3F)ccnc2cc1OCCCN1CCOCC1 [Foretinib] (partner 0.25 µM)
Method in brief: as §1

MK-2206 + Decitabine = compound: NC1(c2ccc(-c3nc4ccn5c(=O)[nH]nc5c4cc3-c3ccccc3)cc2)CCC1 [MK-2206] + Nc1ncn([C@H]2C[C@H](O)[C@@H](CO)O2)c(=O)n1 [Decitabine] (partner 2 µM)
Method in brief: as §1

Cell Line | relative viability (MK-2206 + Crizotinib; first compound 0.01 µM) | relative viability (MK-2206 + Crizotinib; first compound 0.03162 µM) | relative viability (MK-2206 + Crizotinib; first compound 0.3162 µM) | relative viability (MK-2206 + Crizotinib; first compound 1 µM) | relative viability (MK-2206 + Pictilisib; first compound 0.01 µM) | relative viability (MK-2206 + Pictilisib; first compound 0.03162 µM) | relative viability (MK-2206 + Pictilisib; first compound 0.3162 µM) | relative viability (MK-2206 + Pictilisib; first compound 1 µM) | relative viability (MK-2206 + OSI-027; first compound 0.01 µM) | relative viability (MK-2206 + OSI-027; first compound 0.03162 µM) | relative viability (MK-2206 + OSI-027; first compound 0.3162 µM) | relative viability (MK-2206 + OSI-027; first compound 1 µM) | relative viability (Pictilisib + Foretinib; first compound 0.02 µM) | relative viability (Pictilisib + Foretinib; first compound 0.06325 µM) | relative viability (Pictilisib + Foretinib; first compound 0.6325 µM) | relative viability (Pictilisib + Foretinib; first compound 2 µM) | relative viability (MK-2206 + Decitabine; first compound 0.01 µM) | relative viability (MK-2206 + Decitabine; first compound 0.03162 µM) | relative viability (MK-2206 + Decitabine; first compound 0.3162 µM) | relative viability (MK-2206 + Decitabine; first compound 1 µM)
HCC-15 | 0.824 | 0.823 | 0.868 | 0.769 | 0.727 | 0.785 | 0.643 | 0.626 | 0.663 | 0.675 | 0.436 | 0.404 | 1.07 | 0.966 | 0.852 | 0.659 | 0.63 | 0.774 | 0.549 | 0.353
SW 1573 | 0.814 | 0.762 | 0.493 | 0.748 | 0.453 | 0.548 | 0.424 | 0.457 | 0.628 | 0.491 | 0.298 | 0.423 | 0.865 | 0.805 | 0.706 | 0.501 | 0.505 | 0.43 | 0.502 | 0.453
NCI-H838 | 0.857 | 0.812 | 0.834 | 0.765 | 0.517 | 0.436 | 0.464 | 0.42 | 0.484 | 0.397 | 0.327 | 0.366 | 0.973 | 0.895 | 0.929 | 0.45 | 0.472 | 0.494 | 0.496 | 0.451
RERF-LC-KJ | 0.808 | 0.806 | 0.871 | 0.842 | 0.586 | 0.481 | 0.553 | 0.445 | 0.647 | 0.531 | 0.417 | 0.381 | 0.879 | 0.847 | 0.709 | 0.627 | 0.788 | 0.677 | 0.599 | 0.62
ChaGo-K-1 | 1.08 | 1.11 | 0.961 | 1.14 | 0.914 | 0.981 | 0.692 | 0.401 | 0.575 | 0.631 | 0.477 | 0.463 | 0.896 | 0.924 | 0.838 | 0.721 | 0.533 | 0.511 | 0.514 | 0.526
NCI-H441 | 0.798 | 0.639 | 0.612 | 0.643 | 0.501 | 0.467 | 0.424 | 0.48 | 0.922 | 0.473 | 0.428 | 0.393 | 0.929 | 0.749 | 0.745 | 0.539 | 0.248 | 0.251 | 0.206 | 0.234
NCI-H2170 | 1.17 | 1.41 | 1.21 | 1.18 | 0.367 | 0.363 | 0.309 | 0.262 | 0.747 | 0.701 | 0.625 | 0.588 | 1 | 0.983 | 0.827 | 0.772 | 0.482 | 0.462 | 0.462 | 0.443
PC-14 | 0.826 | 0.928 | 0.914 | 0.879 | 0.635 | 0.627 | 0.648 | 0.514 | 0.746 | 0.911 | 0.597 | 0.661 | 1.04 | 0.976 | 0.953 | 0.805 | 0.22 | 0.248 | 0.215 | 0.253
NCI-H2009 | 1.04 | 1.05 | 1.12 | 1.04 | 0.717 | 1.02 | 0.831 | 0.865 | 0.63 | 0.582 | 0.497 | 0.399 | 1.28 | 1.17 | 1.13 | 0.812 | 0.379 | 0.376 | 0.432 | 0.365
NCI-H1437 | 0.852 | 0.938 | 0.914 | 0.997 | 0.472 | 0.399 | 0.366 | 0.263 | 0.91 | 0.844 | 0.746 | 0.675 | 1.23 | 1.29 | 1.36 | 0.96 | 0.603 | 0.559 | 0.562 | 0.521
NCI-H647 | 1.03 | 1.06 | 1.04 | 0.897 | 0.455 | 0.452 | 0.354 | 0.273 | 0.573 | 0.584 | 0.469 | 0.641 | 1.05 | 0.997 | 1.15 | 0.758 | 0.39 | 0.365 | 0.414 | 0.408
SK-MES-1 | 0.953 | 1.02 | 1.04 | 0.816 | 0.37 | 0.34 | 0.354 | 0.352 | 0.62 | 0.502 | 0.452 | 0.504 | 1.02 | 0.86 | 0.494 | 0.271 | 0.383 | 0.4 | 0.371 | 0.321
NCI-H2087 | 0.777 | 0.889 | 0.749 | 0.835 | 0.817 | 0.933 | 0.833 | 0.671 | 0.548 | 0.636 | 0.392 | 0.303 | 1 | 1.19 | 0.828 | 0.588 | 0.244 | 0.273 | 0.24 | 0.196
BEN | 0.906 | 0.956 | 0.913 | 0.908 | 0.573 | 0.621 | 0.63 | 0.571 | 0.3 | 0.301 | 0.271 | 0.297 | 0.83 | 0.599 | 0.587 | 0.538 | 0.909 | 0.673 | 0.679 | 0.643
NCI-H3122 | 0.261 | 0.278 | 0.218 | 0.263 | 0.542 | 0.558 | 0.491 | 0.434 | 0.875 | 0.963 | 0.424 | 0.163 | 0.998 | 0.997 | 0.973 | 0.785 | 0.38 | 0.416 | 0.396 | 0.426
